# pIC50: −log10 of the molar value. Read-outs that look alike come from different tables or passages of the source.
# Columns and labels:
# [1] = target: T1, Ascaris suum succinate-ubiquinone reductase (mitochondrial complex II) (Ascaris suum, UniProt O44074+P92506+P92507); assay: In vitro inhibitory activity on Ascaris suum succinate-ubiquinone reductase (mitochondrial complex II); assay type: biochemical; conditions: for Selectivity B/A: porcine IC50 (B) / Ascaris suum IC50 (A)
# T1 construct: from tissue; host or cells: mitochondria from adult Ascaris suum muscle
# Description: In Vitro Measurement of Inhibitory Activity on Ascaris suum Succinate-Ubiquinone Reductase (Mitochondrial Complex II)
# (§1) To a solution containing 50 mM potassium phosphate (pH 7.4) and 0.1% (w/v) sucrose monolaurate, an electron acceptor ubiquinone-2 (UQ2) was added at a final concentration of 60 μM, and the mixture was allowed to stand at 25° C. for 20 minutes. To this, potassium cyanide (final concentration: 2 mM) and mitochondria prepared from adult Ascaris suum muscle were added, and thorough mixing was done. To aliquots of the mixture, an inhibitor to be tested was added at various concentrations, and the mixtures were allowed to stand at 25° C. for 3 minutes. The enzymatic reaction was initiated by addition of potassium succinate (final concentration: 10 mM).
# (§2) In the table, “-” indicates “not tested,” and “Ascaris suum IC50 value (A)” indicates an IC50 value (50% inhibitory concentration) for inhibition of succinate-ubiquinone reductase (mitochondrial complex II) of Ascaris suum. From the extent of inhibition of this respiratory enzyme, the parasite control activity can be estimated. “Porcine mitochondria IC50 value (B)” indicates an IC50 value for inhibition of succinate-ubiquinone reductase (mitochondrial complex II) of the host pig. From the extent of inhibition of this respiratory enzyme, the influence on the host can be estimated. A greater selectivity index B/A indicates a higher safety for the host.
# [2] = target: T2, Porcine succinate-ubiquinone reductase (mitochondrial complex II) (Sus scrofa, UniProt A5GZW8+D0VWV4+Q007T0); assay: In vitro inhibitory activity on porcine succinate-ubiquinone reductase (mitochondrial complex II); assay type: biochemical, pig
# T2 construct: from tissue; host or cells: mitochondria from porcine heart muscle
# Description: In Vitro Measurement of Inhibitory Activity on Porcine Succinate-Ubiquinone Reductase (Mitochondrial Complex II)
# as §1, with “porcine heart” for “adult Ascaris suum”
# as §2
# Haemonchus contortus = assay: Larval migration inhibition assay (LMIA) on Haemonchus contortus; assay type: in vivo; conditions: third-stage larvae
# Description: In Vivo Activity on Haemonchus contortus
# The test was conducted according to the larval migration inhibition assay (LMIA: Demeler et al., 2010). A larval suspension was prepared so as to contain 100 to 120 third-stage larvae of Haemonchus contortus per 20 μL, and then 20 μL of the larval suspension was added to each well on a breeding plate to which compound solutions adjusted to predetermined concentrations were previously added at […] each. The breeding plate was maintained for breeding at 28° C. for 24 hours. Meanwhile, to a plate for larval migration observation, 400 μL of a 1.5% agar solution was added and left to stand until coagulation. Then, the larvae were allowed to migrate through a sieve from the breeding plate to the plate for larval migration observation, and the plates were maintained for breeding at 28° C. for another 24 hours. The larvae which had migrated, and the larvae which had not migrated were counted, the percentage of migration inhibition was calculated, and the activity was graded based on the following criterion. In the table, “-” indicates “not tested.”
# Percentage of Migration Inhibition
# [3] = at 90 μM, porcine heart muscle mitochondria
# [4] = at 9 μM, porcine heart muscle mitochondria
# [5] = mitochondria from porcine heart muscle, read-out: Porcine mitochondria IC50 value (B)
# [6] = mitochondria from adult Ascaris suum muscle, read-out: Ascaris suum IC50 value (A)
# T1 sequence (O44074 22-282): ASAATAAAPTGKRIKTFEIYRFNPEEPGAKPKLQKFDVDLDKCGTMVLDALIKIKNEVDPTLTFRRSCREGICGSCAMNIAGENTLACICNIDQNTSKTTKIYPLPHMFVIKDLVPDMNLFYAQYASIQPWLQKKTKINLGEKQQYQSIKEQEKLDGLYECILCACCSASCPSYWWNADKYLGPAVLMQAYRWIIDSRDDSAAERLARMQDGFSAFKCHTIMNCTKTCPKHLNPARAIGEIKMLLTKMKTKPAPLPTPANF
# T1 sequence (P92506 32-188): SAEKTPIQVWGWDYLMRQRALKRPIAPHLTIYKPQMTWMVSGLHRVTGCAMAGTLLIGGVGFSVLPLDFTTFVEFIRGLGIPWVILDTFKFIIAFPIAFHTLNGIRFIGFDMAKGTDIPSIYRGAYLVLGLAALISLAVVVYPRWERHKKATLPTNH
# T1 sequence (P92507 26-156): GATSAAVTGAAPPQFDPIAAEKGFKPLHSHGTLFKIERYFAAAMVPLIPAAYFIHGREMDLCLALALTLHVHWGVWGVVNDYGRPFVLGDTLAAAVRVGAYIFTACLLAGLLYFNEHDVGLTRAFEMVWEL
# T1 sequence (Q33862 19-645 partner): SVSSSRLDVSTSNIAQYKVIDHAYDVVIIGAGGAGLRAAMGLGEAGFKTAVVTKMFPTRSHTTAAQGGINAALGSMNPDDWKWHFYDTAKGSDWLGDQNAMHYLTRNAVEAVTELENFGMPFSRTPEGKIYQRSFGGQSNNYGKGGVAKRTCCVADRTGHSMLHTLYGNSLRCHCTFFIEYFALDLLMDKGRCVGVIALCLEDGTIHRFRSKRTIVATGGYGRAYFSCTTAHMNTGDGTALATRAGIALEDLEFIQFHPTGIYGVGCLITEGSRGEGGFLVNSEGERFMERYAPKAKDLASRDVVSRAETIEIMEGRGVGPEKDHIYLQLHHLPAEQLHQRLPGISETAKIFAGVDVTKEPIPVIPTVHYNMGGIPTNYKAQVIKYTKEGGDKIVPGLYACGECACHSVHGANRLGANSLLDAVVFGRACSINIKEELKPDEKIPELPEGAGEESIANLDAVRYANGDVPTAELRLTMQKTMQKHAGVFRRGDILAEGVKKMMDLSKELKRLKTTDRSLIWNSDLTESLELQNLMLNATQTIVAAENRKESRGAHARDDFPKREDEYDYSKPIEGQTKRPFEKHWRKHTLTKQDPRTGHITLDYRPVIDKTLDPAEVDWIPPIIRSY
# T2 sequence (Q007T0 29-280): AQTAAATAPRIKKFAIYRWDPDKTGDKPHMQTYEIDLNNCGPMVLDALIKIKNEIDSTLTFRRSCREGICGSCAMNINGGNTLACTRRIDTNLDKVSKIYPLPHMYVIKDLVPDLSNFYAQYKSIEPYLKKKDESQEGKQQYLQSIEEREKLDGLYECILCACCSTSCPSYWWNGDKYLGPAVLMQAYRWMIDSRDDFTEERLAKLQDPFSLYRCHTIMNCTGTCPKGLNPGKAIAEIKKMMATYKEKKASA
# T2 sequence (D0VWV4 30-169): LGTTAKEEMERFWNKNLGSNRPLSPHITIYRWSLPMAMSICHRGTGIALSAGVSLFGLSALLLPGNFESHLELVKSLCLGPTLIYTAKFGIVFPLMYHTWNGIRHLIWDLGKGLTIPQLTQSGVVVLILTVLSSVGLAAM
# T2 sequence (A5GZW8 57-159 limits assumed): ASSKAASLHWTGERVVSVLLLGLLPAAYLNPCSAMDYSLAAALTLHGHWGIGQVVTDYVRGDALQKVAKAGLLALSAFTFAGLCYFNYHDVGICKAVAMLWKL
# T2 sequence (Q0QF01 43-664 partner): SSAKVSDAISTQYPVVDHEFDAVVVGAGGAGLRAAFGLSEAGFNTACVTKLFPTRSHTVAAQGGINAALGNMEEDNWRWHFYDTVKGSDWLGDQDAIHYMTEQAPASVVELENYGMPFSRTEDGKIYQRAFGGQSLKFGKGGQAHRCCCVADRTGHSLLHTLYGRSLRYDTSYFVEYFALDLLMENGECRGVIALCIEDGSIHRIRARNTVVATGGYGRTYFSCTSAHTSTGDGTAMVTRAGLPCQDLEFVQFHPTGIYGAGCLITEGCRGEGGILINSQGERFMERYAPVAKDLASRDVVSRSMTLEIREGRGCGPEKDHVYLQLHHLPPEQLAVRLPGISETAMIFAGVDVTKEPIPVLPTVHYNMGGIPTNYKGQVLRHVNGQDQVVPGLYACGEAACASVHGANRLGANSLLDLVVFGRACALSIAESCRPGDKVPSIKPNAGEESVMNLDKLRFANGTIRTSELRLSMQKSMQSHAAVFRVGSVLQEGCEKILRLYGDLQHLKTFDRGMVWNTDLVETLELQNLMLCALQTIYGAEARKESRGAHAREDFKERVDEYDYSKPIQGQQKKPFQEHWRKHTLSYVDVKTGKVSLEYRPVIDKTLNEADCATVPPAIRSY
SMILES,pIC50 [1],"Porcine mitochondria inhibition at 90 μM [2, 3]",Selectivity B/A [1],"pIC50 [1, 6]",further results
CC(C)(Cc1ccc(Cl)c(Cl)c1)NC(=O)c1ccccc1C(F)(F)F [Compound 1-88],7.92,–,–,–,–
O=C(NCCc1ccccc1)c1ccccc1C(F)(F)F [Compound 1-111],7.88,no inhibition at 90 μM,>6870,–,–
CC(Cc1ccc(F)cc1F)NC(=O)c1ccccc1C(F)(F)F (stereo not drawn) [Compound 1-64],8.05,–,>9150,–,"Porcine mitochondria inhibition at 9 μM [2, 4]: no inhibition at 9 μM"
CC(C)(C)c1ccc(CNC(=O)c2ccccc2C(F)(F)F)cc1 [Compound 2-1],–,–,20295,8.26,"pIC50 [2, 5]: 3.95; Percentage of migration inhibition (grade) (Haemonchus contortus; 0.1 ppm): C (10 to 39%); Percentage of migration inhibition (grade) (Haemonchus contortus; 1 ppm): B (40 to 69%)"
CC(Cc1ccc(Cl)cc1Cl)NC(=O)c1ccccc1C(F)(F)F (stereo not drawn) [Compound 1-32],8.67,–,>4190,–,"Porcine mitochondria inhibition at 9 μM [2, 4]: no inhibition at 9 μM; Percentage of migration inhibition (grade) (Haemonchus contortus; 0.1 ppm): C (10 to 39%); Percentage of migration inhibition (grade) (Haemonchus contortus; 1 ppm): C (10 to 39%); Percentage of migration inhibition (grade) (Haemonchus contortus; 10 ppm): B (40 to 69%)"
O=C(NCCCSc1ccc(Cl)cc1Cl)c1ccccc1C(F)(F)F [Compound 4-6],–,–,>1079,8.08,"Porcine mitochondria inhibition at 9 μM [2, 4]: no inhibition at 9 μM"
O=C(NC(c1ccc(Cl)cc1)C1CC1)c1ccccc1C(F)(F)F (stereo not drawn) [Compound 2-4],–,no inhibition at 90 μM,>1280,7.15,–
CC(CCc1ccc(Cl)cc1Cl)NC(=O)c1ccccc1C(F)(F)F (stereo not drawn) [Compound 4-8],8.58,–,>3448,–,"inhibition at 9 µM [2, 4]: 5%"
Cc1cc(CNC(=O)c2ccccc2C(F)(F)F)ccc1-c1ccc(OC(F)(F)F)cc1 [Compound 2-5],–,–,>2350,8.42,"Porcine mitochondria inhibition at 9 μM [2, 4]: no inhibition at 9 μM"
CC(NC(=O)c1ccccc1C(F)(F)F)c1ccc(Cl)cc1 (stereo not drawn) [Compound 2-8],–,no inhibition at 90 μM,>2360,7.42,–
CC(C)(CNC(=O)c1ccccc1C(F)(F)F)c1ccc(Cl)cc1Cl [Compound 1-112],8.82,no inhibition at 90 μM,>60000,–,–
CC(COc1ccc(Cl)cc1Cl)NC(=O)c1ccccc1C(F)(F)F (stereo not drawn) [Compound 4-2],8.29,–,–,–,–
O=C(NCc1ccc(Cl)cc1Cl)c1ccccc1C(F)(F)F [Compound 2-6],–,10% at 90 μM,>3180,7.55,Percentage of migration inhibition (grade) (Haemonchus contortus; 0.1 ppm): C (10 to 39%); Percentage of migration inhibition (grade) (Haemonchus contortus; 1 ppm): C (10 to 39%); Percentage of migration inhibition (grade) (Haemonchus contortus; 10 ppm): C (10 to 39%)
CC(NC(=O)c1ccccc1C(F)(F)F)c1ccc(Cl)cc1Cl (stereo not drawn) [Compound 2-7],–,no inhibition at 90 μM,>6430,7.85,–
Cc1ccc(CCNC(=O)c2ccccc2C(F)(F)F)c(C)c1 [Compound 1-27],8.77,no inhibition at 90 μM,>53300,–,–
Cc1ccc(SCCCNC(=O)c2ccccc2C(F)(F)F)c(C)c1 [Compound 4-5],–,11% at 90 μM,>14830,8.22,–
CC(C)(NC(=O)c1ccccc1C(F)(F)F)c1ccccc1 [Compound 2-3],–,no inhibition at 90 μM,>709,6.90,–
O=C(NCCc1ccc(Cl)cc1)c1ccccc1C(F)(F)F [Compound 1-3],8.92,no inhibition at 90 μM,>27000,–,–
CC(Cc1ccc(Cl)c(Cl)c1)NC(=O)c1ccccc1C(F)(F)F (stereo not drawn) [Compound 1-81],8.32,–,>18800,–,"inhibition at 90 µM [2, 3]: 10%"
O=C(NCCc1ncc(C(F)(F)F)cc1Cl)c1ccccc1C(F)(F)F [Compound 3-7],8.80,–,56250,–,pIC50 [2]: 4.05; Percentage of migration inhibition (grade) (Haemonchus contortus; 0.1 ppm): C (10 to 39%); Percentage of migration inhibition (grade) (Haemonchus contortus; 1 ppm): C (10 to 39%); Percentage of migration inhibition (grade) (Haemonchus contortus; 10 ppm): C (10 to 39%); Percentage of migration inhibition (grade) (Haemonchus contortus; 100 ppm): B (40 to 69%)
Cc1ccc(OCCNC(=O)c2ccccc2C(F)(F)F)c(C)c1 [Compound 4-3],8.70,–,–,–,–
O=C(NCCCOc1ccc(Cl)cc1Cl)c1ccccc1C(F)(F)F [Compound 4-4],–,16% at 90 μM,>10770,8.08,–
O=C(NCCc1ccc(Cl)cc1Cl)c1ccccc1C(F)(F)F [Compound 1-16],8.48,no inhibition at 90 μM,>74400,–,Percentage of migration inhibition (grade) (Haemonchus contortus; 0.1 ppm): C (10 to 39%); Percentage of migration inhibition (grade) (Haemonchus contortus; 1 ppm): C (10 to 39%); Percentage of migration inhibition (grade) (Haemonchus contortus; 10 ppm): C (10 to 39%); Percentage of migration inhibition (grade) (Haemonchus contortus; 100 ppm): B (40 to 69%)
O=C(NCCc1c(Cl)cc(C(F)(F)F)cc1Cl)c1ccccc1C(F)(F)F [Compound 1-110],8.39,–,>2460,–,"Porcine mitochondria inhibition at 10 μM ([2]; at 10 μM, porcine heart muscle mitochondria): no inhibition at 10 μM"
O=C(NCCOc1ccc(Cl)cc1Cl)c1ccccc1C(F)(F)F [Compound 4-1],8.46,–,–,–,Percentage of migration inhibition (grade) (Haemonchus contortus; 0.1 ppm): C (10 to 39%); Percentage of migration inhibition (grade) (Haemonchus contortus; 1 ppm): C (10 to 39%); Percentage of migration inhibition (grade) (Haemonchus contortus; 10 ppm): C (10 to 39%)
O=C(NCCCc1ccc(Cl)cc1Cl)c1ccccc1C(F)(F)F [Compound 4-7],8.75,–,57870,–,"pIC50 [2, 5]: 3.99; Percentage of migration inhibition (grade) (Haemonchus contortus; 0.1 ppm): C (10 to 39%); Percentage of migration inhibition (grade) (Haemonchus contortus; 1 ppm): C (10 to 39%); Percentage of migration inhibition (grade) (Haemonchus contortus; 10 ppm): C (10 to 39%); Percentage of migration inhibition (grade) (Haemonchus contortus; 100 ppm): B (40 to 69%)"
